Columns and labels:
[1] = test system: Kunming (KM) mice; assay: Mouse light-dark transition experiment (Experiment 1); type: in vivo
From the text: 1.1 Experimental animals: Kunming (KM) mice, male, 24˜26 g of body weight, secondary, are provided by the Experimental Animal Science Department of Capital Medical University, Beijing.
1.2 Experimental pharmaceuticals: The pharmaceutical of Embodiment 1 is provided by Beijing Wonner Biotech. Ltd. Co., and Diazepam is the product of Tianjin Jinhuei Amino Acid Co. Ltd.
1.3 Experimental equipment: Self-made light-dark transition box.
1.5.1 Group division and administration of drug: The mice are grouped randomly as 5 groups, and 10 mice are in each group. 1. High dose of Embodiment 1 (80 mg/kg); 2. middle dose of Embodiment 1 (40 mg/kg); 3. low dose of Embodiment 1 (20 mg/kg); 4. Diazepam (2.5 mg/kg); and 5. physiological saline (normal saline, NS). […]
(§1) Mouse light-dark transition test: The dark chamber occupies one third of the light-dark transition chamber (44 cm×21 cm×21 cm), and the top is capped. […] The times that the mouse enters into the dark chamber and returns to the light chamber within 10 minutes are determined, and the times thereof are the index for evaluating the anti-anxiety function of the drugs.
1.5.3 Statistic calculation: The experimental data are represented as X±SD, and the experimental result is calculated as one-way analysis of variance (one-way ANOVA) by SPSS 11.5 statistic software.

[2] = test system: Kunming (KM) mice; assay: Mouse light-dark transition experiment (Experiment 2); type: in vivo
Experimental: 2.1 Experimental animals: Kunming (KM) mice, male, 24˜26 g of body weight, secondary, are provided by the Experimental Animal Science Department of Capital Medical University, Beijing.
2.2 Experimental pharmaceuticals: The pharmaceutical of Embodiment 4 is provided by Beijing Wonner Biotech. Ltd. Co., and Diazepam is the product of Tianjin Jinhuei Amino Acid Co. Ltd.
2.3 Experimental equipment: Self-made light-dark transition box.
2.4 Dose designs: 1. High dose of Embodiment 4 (80 mg/kg/d); 2. middle dose of Embodiment 4 (40 mg/kg/d); and 3. low dose of Embodiment 4 (20 mg/kg/d).
2.5.1 Group division and administration of drug: The mice are grouped randomly as 5 groups, and 10 mice are in each group. 1. High dose of Embodiment 4 (80 mg/kg); 2. middle dose of Embodiment 4 (40 mg/kg); 3. low dose of Embodiment 4 (20 mg/kg); 4. […]
as §1
2.5.3 Statistic calculation: The experimental data are represented as X±SD, and the experimental result is calculated as one-way ANOVA by SPSS 11.5 statistic software.

[3] = in the human body; cited from earlier work
[4] = 2.5 mg/kg, fed into the stomach once daily for 7 days, test 1 hour after last administration, within 10 minutes, X±SD, 10 mice

Row | Compound | Times of passing from dark chamber to light chamber [1, 4] | Effect on the times that the mouse passes from the dark chamber to the light chamber, in words ([1]; compared with physiological saline, high, middle and low doses of Embodiment 1, Diazepam 2.5 mg/kg) | Times of passing from dark chamber to light chamber [2, 4] | Effect on the times that the mouse passes from the dark chamber to the light chamber, in words ([2]; compared with normal saline, high, middle and low doses of Embodiment 4, Diazepam 2.5 mg/kg) | Efficiency of conversion of glycyrrhizic acid to glycyrrhetinic acid [3]
1 | CN1C(=O)CN=C(c2ccccc2)c2cc(Cl)ccc21 [Diazepam] | 11.3 ± 4.54 | significantly increase | 11.7 ± 4.47 | significantly increase | –
2 | CC1(C)[C@@H](O[C@H]2O[C@H](C(=O)O)[C@@H](O)[C@H](O)[C@H]2O[C@@H]2O[C@H](C(=O)O)[C@@H](O)[C@H](O)[C@H]2O)CC[C@]2(C)[C@H]3C(=O)C=C4[C@@H]5C[C@@](C)(C(=O)O)CC[C@]5(C)CC[C@@]4(C)[C@]3(C)CC[C@@H]12 [glycyrrhizic acid] | – | – | – | – | ~100%

— patent publication US20170274032A1, “PHARMACEUTICAL COMPOSITIONS FOR TREATING ANXIETY” (Beijing Wonner Biotech. Ltd. Co., priority 2007, published 2017)
